Measured values reported in patent US4997825A, “Synergistic treatment method” (Eli Lilly and Company, priority 1989, dated 1991).
Like-named read-outs stand apart in the source and are kept apart here. No end group written: not given here.

Tests used:
Plasma GH [1] = test: Plasma growth hormone in lambs during subcutaneous infusion of hGRF analog (serine at position 27), with or without estradiol implant; assay type: in vivo; settings: no hGRF (Control)
Description: This experiment was carried out substantially according to the scheme of Example 1. In this test, the GRF was a hGRF analog having serine in place of methionine at position 27; the GRF was prepared by recombinant methods. Four rates of hGRF were used, 0.75, 1.5 and 3.0 mg/day, and controls.
The hGRF was infused through a subcutaneous Silastic cannula using an IVAC model 630 pump (IVAC Corporation, San Diego). The hGRF was diluted in physiological saline to provide concentrations such that 48 ml/day of each infusate could be supplied to each animal.

Plasma GH [2] = test: Plasma growth hormone in wethers during 5-day continuous infusion of hGRF (acid form) through a jugular cannula, with or without estradiol implant; radioimmunological analysis; assay type: in vivo; settings: no hGRF (Control), estradiol implant about 25 mcg/day
Description: Wethers weighing about 32 kg were confined in metabolism crates for about 7 days before the experiment began. […] Two days before the start of the treatment schedule, a Silastic (Dow Corning Corporation) cannula was inserted in each jugular vein of each wether. Four animals, two implanted and two unimplanted, were assigned to three GRF treatments, 1.5 mg/day, 0.33 mg/day and control. The GRF which was used was hGRF in the acid form, synthesized by solid phase synthetic methodology according to the general procedure of Merrifield et al., Biochemistry 21, 5020 (1982).
GRF was infused through one of the cannulae continuously for 5 days to the treated wethers, using a Harvard peristaltic pump. The GRF was diluted in physiological saline to a concentration such that the actual delivery rate was 0.5 ml of infusate per minute.
Six blood samples were collected from each wether each day, beginning 1 day before the start of infusion and continuing 1 day after the end of it. Two samples were obtained within 1 hour just before the beginning of each 1-hour ad libitum meal, and 1 sample was taken at the end of each meal. The animals received two 1-hour meals daily at 12 hour intervals. Additional blood samples were taken 1 hour before, just before, 10 minutes after and 60 minutes after the start of infusion. At the end of the infusion period, additional blood samples were obtained at 10, 20, 30 and 60 minutes after the termination of infusion.
The plasma was separated from the other components of the blood samples, and was analyzed for growth hormone by a standard radioimmunological procedure.
The table below reports the growth hormone levels in the animals, reported as means of all of the analyses in the stated time period. The data from animals which were implanted with estradiol are indicated by "+" in the column headed Estradiol.

growth hormone [3] = settings: intravenously, normal men; cited from earlier work
[4] = test system: growth hormone concentration; settings: large doses, normal men, measured fasting; cited from earlier work
growth hormone [5] = settings: steers, finishing diet with 10 mg/head/day; cited from earlier work
growth hormone [6] = settings: rats, Rhesus monkeys, rabbits, sheep, cattle and chickens, as well as humans; cited from earlier work

## C[C@]12CC[C@@H]3c4ccc(O)cc4CC[C@H]3[C@@H]1CC[C@@H]2O [Estradiol, estradiol]
Plasma GH [1]
  Plasma GH, Infusion Period Day 1: 5.9 ng/mL
  Plasma GH, Infusion Period Day 2: 10.0 ng/mL
  Plasma GH, Infusion Period Day 3: 6.2 ng/mL
  Plasma GH, Infusion Period Day 5: 8.8 ng/mL
  Plasma GH, Posttreatment: 8.7 ng/mL
  Plasma GH, Pretreatment: 11.6 ng/mL
Plasma GH [2]
  Plasma GH, Infusion Period Day 1: 3.3 ng/mL
  Plasma GH, Infusion Period Day 2: 4.3 ng/mL
  Plasma GH, Infusion Period Day 3: 2.9 ng/mL
  Plasma GH, Infusion Period Day 4: 5.2 ng/mL
  Plasma GH, Infusion Period Day 5: 4.2 ng/mL
Plasma GH [2]; day after infusion
  Plasma GH, Posttreatment: 2.4 ng/mL
Plasma GH [2]; mean of analyses, day before infusion
  Plasma GH, Pretreatment: 2.8 ng/mL

## C#C[C@]1(O)CC[C@H]2[C@@H]3CCc4cc(O)ccc4[C@H]3CC[C@@]21C [Ethinyl estradiol]
Growth hormone [3]
  growth hormone: significant increase in growth hormone in 5 of 6 patients

## CC/C(=C(/CC)c1ccc(O)cc1)c1ccc(O)cc1 [diethylstilbestrol]
[4]
  growth hormone concentration: increased growth hormone concentration

## CC/C(=C(/CC)c1ccc(O)cc1)c1ccc(O)cc1 [stilbestrol]
Growth hormone [5]
  growth hormone: increased growth hormone

## endogenous human GRF: GRF naturally produced by humans; peptide of 43 or 44 amino acids (YADAIFTNSYRKVLGQLSARKLLQDIMSRQQGESNQERGARARL; ends and bridges not checked; UniProt P01286 32-75, looked up)
Growth hormone [6]
  GRF activity across species: active

## hGRF40 acid: human GRF analog having 40 amino acids and a free acid terminal (YADAIFTNSYRKVLGQLSARKLLQDIMSRQQGESNQERGA-OH; UniProt P01286 32-71, looked up, fragment)
Growth hormone [6]
  GRF activity across species: active
